Assay results published in patent US10512624B2, “Long-chain amphipathic dicarboxylic acids for treatment of diabetes type-1” (Syndromex Ltd., priority 2016, dated 2019).

Columns and labels:
[1] = test system: NOD mice; assay: Prevention of overt type 1 diabetes (T1D) in NOD mice; type: in vivo, mouse
Experimental: NOD/LtJ mice (Harlan Laboratories) were bred in-house under pathogen-free conditions. Female mice (3-week old) were fed ad libitum from weaning on with standard chow (Harlan Teklad 2018), or with MEDICA16αα diet (0.04% (w/w) MEDICA16αα mixed in Teklad 2018, yielding a dose of 40 mg MEDICA16αα per kg body weight per day). Mice were monitored weekly for body weight and food consumption. Tail vein blood glucose was verified weekly from week 10th on, on a set day and hour. Mice were considered diabetic if presenting non-fasting blood glucose levels >300 mg/dl for 3 consecutive days. Diabetic mice were euthanized, and blood and tissues were sampled for further studies.

[2] = test system: hepatic gluconeogenesis; assay: Suppression of hepatic gluconeogenesis in STZ diabetic rats (RT-PCR, Western blot, cAMP kit); type: in vivo, rat
Experimental: (§1) Administering a combination of Medica16αα and insulin was performed by treating STZ diabetic rats (FBG >300 mg/dl) with oral MEDICA16αα(15 mg/kg b.i.d) for five consecutive days, then MEDICA16αα-responsive rats were further treated with MEDICA16αα(15 mg/kg b.i.d) for 10 additional consecutive days (“STZ/MEDICA Res”), and MEDICA16αα non-responsive rats (FBG >250 mg/dl) were further treated for 10 additional consecutive days with either insulin Neutral Protamine Hagedorn (NPH) (3 u/kg b.i.d subcutaneously) (“STZ/NPH”), or with insulin NPH (3 u/kg b.i.d subcutaneously in combination with oral MEDICA16αα(15 mg/kg b.i.d) (“STZ/MEDICA NPH”).
Sampled frozen tissue was homogenized (Polytron) in lysis buffer (50 mM Tris HCl, pH 8.0, 1% Triton X-100, 1 mM EGTA, 1 mM EDTA, 150 mM NaCl, 5 mM NaPPi, 50 mM NaF, 1 mM PMSF, 1 mM Na Vanadate, 40 nM bpVfan and protease inhibitor cocktail (Sigma)), and centrifuged for 15 min at 12,500 rpm.
(§2) Protein lysates were prepared in sodium dodecyl sulfate (SDS) sample buffer (62 mM Tris (pH 6.8), 2.3% SDS, […] mercaptoethanol, 10% glycerol), and were subjected to SDS-PAGE, electro-transferred onto cellulose nitrate membranes (Schleicher & Schuell) and probed with the indicated first antibody, followed by HRP-labeled second antibody. Protein concentration was determined by BCA (Thermo Scientific). Bands were detected by ECL, and the intensity of individual bands was determined by densitometry using ImageJ 1.48 v software.
Sampled frozen tissue was homogenized (Polytron) in lysis buffer (50 mM Hepes (pH 7.4), 150 mM NaCl, 10% Glycerol, 1.5 mM MgCl2, 1 mM EGTA, 1% Triton, 50 mM β-glycerolphosphate, 25 mM NaF, 1 mM Na-vanadate, 40 nM bpVphen, protease inhibitor mix (Sigma) and 17.5 mg/ml octyl beta-D-glucopyranoside (Sigma)). Lysates were kept on ice for 30 min and centrifuged at 12000 rpm for 15 min. Lysates ([…]) were incubated for 4 h with protein A/G beads (Santa Cruz Biotechnology) pre-loaded with the indicated antibody. The immune-precipitate was rinsed 3 times with washing buffer (20 mM Hepes (pH 7.4), 150 mM NaCl, 0.1% Tx-100, 10% glycerol), re-suspended in SDS sample buffer, boiled for 8 min, and analyzed by SDS-PAGE.
Total RNA was prepared using the TRI reagent (Sigma Aldrich). First-strand cDNA used as template was synthesized by reverse transcription using oligo(dT) as primer and the Reverse-iTMAX First Strand Kit (ABgene, Epson). Glucose-6-phosphatase (G6Pase) and phosphoenolpyruvate carboxykinase (PEPCK) transcripts normalized by tubulin were quantified by real-time PCR (Rotor Gene RG-3000A) using SYBER green MasterMix (Absolute Syber Green ROX Mix, ABgene) and the following primers: […]
Pancreas and plasma insulin and glucagon content were determined by insulin (Millipore, Cat #RI-13K) and glucagon (Millipore, Cat # GL-32K) radioimmunoassay (RIA) kits. cAMP levels were measured by cAMP kit (Arbor Assays, DetectX Cat # K019-H1).

[3] = test system: NOD mice; assay: Hyperinsulinemic-euglycemic clamp in pre-diabetic NOD mice; type: in vivo, mouse
Experimental: Clamps were carried out according to Vanderbilt Mouse Metabolic Phenotyping Center, Vanderbilt University School of Medicine protocol (28), with minor modifications, using HPLC-purified ^3H-glucose (specific activity 13.5 Ci/mmol, MT-914 Moravek Biochemicals, priming dose of 1 μC followed by continuous infusion of 0.05 μCi·min-1 for a 90 min equilibration period), HumulinR insulin (Eli Lilly, 4 mU·kg-1. min-1), and 10% glucose solution.
Clamps were carried out in conscious 12-14-week old NOD female mice fasted for 3 hours, 3 days following catheters' insertion. […] Plasma glucose specific activity was verified on 80, 90, 100, and 120 min following insulin infusion. On 120 min, 12-μCi bolus of ^14C-2-deoxyglucose (DG) (specific activity 274.6 mCi/mmol, MC-392 Moravek Biochemicals) was injected, followed by blood sampling on 122, 125, 130, 135, and 145 min, to determine blood glucose and 2-deoxyglucose activity.
Upon sacrifice, gastrocnemius, superficial vastus lateralis, and soleus muscles were removed, immediately frozen in liquid nitrogen, and stored at −70° C. until further analysis. Glucose appearance (Ra) and disappearance (Rd) were determined using Steele non-steady-state equations. Endogenous glucose production (EndoRt) was determined by subtracting the glucose infusion rate (GIR) from total glucose turnover (Rt). Glucose metabolic index in muscle (Rg) was calculated by the equation:
[formula] where 2[^14C]DGPtissue is the 2[^14C]DG radioactivity in muscle normalized to tissue weight (dpm/g tissue), AUC 2[^14C]DGplasma is the area under the plasma 2[^14C]DG disappearance curve (dpm·min·m1-1), and [arterial glucose] is the average blood glucose (mmol/1) during the 80-120 min clamp period. Immuno-Histochemistry

[4] = test system: Soleus GLUT4; assay: Activation of Soleus GLUT4 in STZ diabetic rats; type: in vivo, rat
Experimental: as §1
Muscle tissue was fixed with 4% buffered formaldehyde for 4 hours. Paraffin sections (5 μm) were rehydrated and antigen retrieved in citrate buffer using a Biocare pressure cooker, followed by 5 minutes blocking in peroxidase and 10 minutes of protein block (Cas-Block). The sample was incubated with anti-GLUT4 antibody (AbCam ab65267), followed by polyclonal anti-mouse IgG. DAB substrate buffer was then added to achieve coloration. The specimens were subsequently dehydrated with ethanol, cleared with xylene and then mounted on glass cover slips. Digital images were obtained using Nikon Eclipse TE-2000E microscope equipped with Olympus DP70 camera. Image analysis was carried out using ImageJ software. […]
as §2

CC(C)(CCCCCCCCCCCCC(C)(C)C(=O)O)C(=O)O [MEDICA16αα, 2,2,15,15-tetramethylhexadecane-1,16-dioic acid]
decrease in body weight gain ([1]; NOD mice, 40 mg/kg per day in feed): 40% | NOD mice in which development of T1D was delayed or prevented ([1]; oral in feed 40 mg/kg per day from weaning, 21 weeks (until week 26), 32% in non-treated group): 71% | hepatic cAMP levels [2]: suppressing hepatic cAMP levels | hepatic phospho-ACC(Ser79) (AMPK activation) [2]: phosphorylation of its downstream ACC(Ser79) substrate | clamped plasma insulin [3]: decrease | deoxyglucose uptake into soleus and gastrocnemius muscles [3]: insulin-induced deoxyglucose uptake | endogenous glucose production [3]: insulin-induced decrease | increase in glucose infusion rate (GIR) [3]: 37% | total body glucose turnover [3]: increase | soleus AKT (phospho-Akt(Ser473)) [4]: activated | soleus AMPK (phospho-ACC(Ser79)) [4]: activated | soleus phospho-AS160(Thr642) [4]: increase in phosphorylated AS160(Thr642)
